# Assay results published in ChEMBL document CHEMBL3751718, “Synthesis and biological evaluation of lipid-like 5-(2-hydroxyethyl)-4-methyl-1,3-thiazole derivatives as potential anticancer and antimicrobial agents” (Medchemcomm, 2015).
# Activity calls are given as the source filed them. The calls are words filed in the database; no cut-off is given here.
# Tests used:
# Staphylococcus aureus [1] = test: Antibacterial activity against Staphylococcus aureus MSCL 334 at 10 mg/ml after 24 hrs by agar dish diffusion method; format: functional; details: for zone of inhibition at 10000 µg/mL: MSCL 334, 24 h, read-out: DIZ
# HT-1080 [2] = test: Induction of nitric oxide production in human HT1080 cells by Griess assay; format: functional; parameters: concentration or dose not given beside the values
# Aspergillus niger [3] = test: Antifungal activity against Aspergillus niger MSCL 324 at 5 mg/ml after 48 hrs by agar dish diffusion method; format: functional; details: for zone of inhibition at 5000 µg/mL: MSCL 324, 48 h, read-out: DIZ
# Candida albicans [4] = test: Antifungal activity against Candida albicans MSCL 378 at 5 mg/ml after 48 hrs by agar dish diffusion method; format: functional; details: MSCL 378, 48 h, read-out: DIZ
# Staphylococcus aureus [5] = test: Antibacterial activity against Staphylococcus aureus MSCL 334 at 5 mg/ml after 24 hrs by agar dish diffusion method; format: functional
# Escherichia coli [6] = test: Antibacterial activity against Escherichia coli MSCL 332 at 5 mg/ml after 24 hrs by agar dish diffusion method; format: functional
# [7] = (§1) Cytotoxicity against human HT1080 cells assessed as cell viability at 6.25 to 50 ug/ml by crystal violet-based assay; format: functional; details: HT-1080, read-out: LC50 (the source's name)
# Pseudomonas aeruginosa [8] = test: Antibacterial activity against Pseudomonas aeruginosa MSCL 331 at 5 mg/ml after 24 hrs by agar dish diffusion method; format: functional
# Aspergillus niger [9] = test: Fungicidal activity against Aspergillus niger MSCL 324 incubated for 24 hrs followed by colony transfer to agar plates for 24 hrs by colony counting based assay; format: functional; details: MSCL 324, 24 h, read-out: MFC99.9
# MG-22A [10] = test: Induction of nitric oxide production in mouse MG-22A cells by Griess assay; format: functional; parameters: concentration or dose not given beside the values
# MG-22A [11] = test: Cytotoxicity against mouse MG-22A cells assessed as cell viability at 6.25 to 50 ug/ml by crystal violet-based assay; format: functional; details: for CC50: read-out: LC50 (the source's name)
# Escherichia coli [12] = test: Antibacterial activity against Escherichia coli MSCL 332 at 10 mg/ml after 24 hrs by agar dish diffusion method; format: functional
# Candida albicans [13] = test: Fungicidal activity against Candida albicans MSCL 378 incubated for 24 hrs followed by colony transfer to agar plates for 24 hrs by colony counting based assay; format: functional; details: MSCL 378, 24 h, read-out: MFC99.9
# Aspergillus niger [14] = test: Antifungal activity against Aspergillus niger MSCL 324 after 24 hrs by broth dilution method; format: functional; details: MSCL 324, 24 h
# Candida albicans [15] = test: Antifungal activity against Candida albicans MSCL 378 after 24 hrs by broth dilution method; format: functional; details: MSCL 378, 24 h
# [16] = Cytotoxicity against mouse NIH/3T3 cells assessed as cell viability at 6.25 to 50 ug/ml by neutral red-based assay; details: nih3t3
# MG-22A [17] = test: Cytotoxicity against mouse MG-22A cells assessed as cell viability at 6.25 to 50 ug/ml after 72 hrs by MTT assay; format: functional; details: for CC50: read-out: LC50 (the source's name)
# Proteus mirabilis [18] = test: Antibacterial activity against Proteus mirabilis MSCL 590 at 10 mg/ml after 24 hrs by agar dish diffusion method; format: functional
# Pseudomonas aeruginosa [19] = test: Antibacterial activity against Pseudomonas aeruginosa MSCL 331 at 10 mg/ml after 24 hrs by agar dish diffusion method; format: functional
# Candida albicans [20] = test: Antifungal activity against Candida albicans MSCL 378 at 10 mg/ml after 48 hrs by agar dish diffusion method; format: functional; details: MSCL 378, 48 h, read-out: DIZ
# [21] = (§2) Cytotoxicity against human HT1080 cells assessed as cell viability at 6.25 to 50 ug/ml after 72 hrs by MTT assay; format: functional; details: HT-1080, 72 h, read-out: LC50 (the source's name)
# Proteus mirabilis [22] = test: Antibacterial activity against Proteus mirabilis MSCL 590 at 5 mg/ml after 24 hrs by agar dish diffusion method; format: functional
# Bacillus cereus [23] = test: Antibacterial activity against Bacillus cereus MSCL 330 at 10 mg/ml after 24 hrs by agar dish diffusion method; format: functional; details: for zone of inhibition at 10000 µg/mL: MSCL 330, 24 h, read-out: DIZ
# Bacillus cereus [24] = test: Antibacterial activity against Bacillus cereus MSCL 330 at 5 mg/ml after 24 hrs by agar dish diffusion method; format: functional; details: for zone of inhibition at 5000 µg/mL: MSCL 330, 24 h, read-out: DIZ
# Aspergillus niger [25] = test: Antifungal activity against Aspergillus niger MSCL 324 at 10 mg/ml after 48 hrs by agar dish diffusion method; format: functional; details: MSCL 324, 48 h, read-out: DIZ
# HT-1080 [26] = test: as §1; format: functional
# HT-1080 [27] = test: as §2; format: functional
# Bacillus cereus [28] = test: Bactericidal activity against Bacillus cereus MSCL 330 incubated for 24 hrs followed by colony transfer to agar plates for 24 hrs by colony counting based assay; format: functional; details: MSCL 330, 24 h, read-out: MBC99.9
# Bacillus cereus [29] = test: Antibacterial activity against Bacillus cereus MSCL 330 after 24 hrs by broth dilution method; format: functional; details: MSCL 330, 24 h
# Staphylococcus aureus [30] = test: Bactericidal activity against Staphylococcus aureus MSCL 334 incubated for 24 hrs followed by colony transfer to agar plates for 24 hrs by colony counting based assay; format: functional; details: MSCL 334, 24 h, read-out: MBC99.9
# Staphylococcus aureus [31] = test: Antibacterial activity against Staphylococcus aureus MSCL 334 after 24 hrs by broth dilution method; format: functional; details: MSCL 334, 24 h
Compound,Activity (HT-1080 [2]) [%],zone of inhibition at 5000 µg/mL (Candida albicans [4]) [mm],diameter of the inhibition zone (DIZ) (Escherichia coli [6]),CC50 [7],diameter of the inhibition zone (DIZ) (Pseudomonas aeruginosa [8]),MFC (Aspergillus niger [9]) [µg/mL],Activity (MG-22A [10]) [%],CC50 (MG-22A [11]),diameter of the inhibition zone (DIZ) (Escherichia coli [12]),MFC (Candida albicans [13]) [µg/mL],MIC (Aspergillus niger [14]) [µg/mL],MIC (Candida albicans [15]) [µg/mL],LC50 [16],CC50 (MG-22A [17]),diameter of the inhibition zone (DIZ) (Proteus mirabilis [18]),diameter of the inhibition zone (DIZ) (Pseudomonas aeruginosa [19]),zone of inhibition at 10000 µg/mL (Candida albicans [20]) [mm],CC50 [21],diameter of the inhibition zone (DIZ) (Proteus mirabilis [22]),zone of inhibition at 10000 µg/mL (Aspergillus niger [25]) [mm],also measured
CCCCCCCCCCCCCCCCCCOCCc1scnc1C,4,10,inactive,> 100 µg/mL,inactive,> 256,5,> 100 µg/mL,inactive,> 256,> 256,> 256,528 µg/mL,> 100 µg/mL,inactive,inactive,14,> 100 µg/mL,inactive,11,diameter of the inhibition zone (DIZ) (Staphylococcus aureus [1]): inactive; diameter of the inhibition zone (DIZ) (Aspergillus niger [3]): inactive; diameter of the inhibition zone (DIZ) (Staphylococcus aureus [5]): inactive; diameter of the inhibition zone (DIZ) (Bacillus cereus [23]): inactive; diameter of the inhibition zone (DIZ) (Bacillus cereus [24]): inactive
Cc1ncsc1CCO,4,–,–,–,–,–,4,–,–,–,–,–,–,–,–,–,–,–,–,–,LC50 (HT-1080 [26]): inactive; LC50 (MG-22A [11]): inactive; LC50 (MG-22A [17]): inactive; LC50 (HT-1080 [27]): inactive
CCCCCCCCCCOCCc1scnc1C,400,13,inactive,60 µM,inactive,64,200,38.8 µM,inactive,> 256,32,> 256,84.8 µM,45.9 µM,inactive,inactive,9,63.6 µM,inactive,11,zone of inhibition at 10000 µg/mL (Staphylococcus aureus [1]): 10 mm; MBC (Bacillus cereus [28]): > 256 µg/mL; zone of inhibition at 5000 µg/mL (Aspergillus niger [3]): 11 mm; diameter of the inhibition zone (DIZ) (Staphylococcus aureus [5]): inactive; MIC (Bacillus cereus [29]): 2 µg/mL; zone of inhibition at 10000 µg/mL (Bacillus cereus [23]): 10 mm; zone of inhibition at 5000 µg/mL (Bacillus cereus [24]): 9 mm
CCCCCCCOCCc1scnc1C,200,13,inactive,62.2 µM,inactive,256,200,37.3 µM,inactive,128,16,64,224 µM,49.7 µM,inactive,inactive,13,70.5 µM,inactive,15,"zone of inhibition at 10000 µg/mL (Staphylococcus aureus [1]): 15 mm; MBC (Bacillus cereus [28]): > 256 µg/mL; zone of inhibition at 5000 µg/mL (Aspergillus niger [3]): 15 mm; zone of inhibition at 5000 µg/mL (Staphylococcus aureus [5]; MSCL 334, 24 h, read-out: DIZ): 11 mm; MBC (Staphylococcus aureus [30]): 64 µg/mL; MIC (Bacillus cereus [29]): 64 µg/mL; zone of inhibition at 10000 µg/mL (Bacillus cereus [23]): 12 mm; zone of inhibition at 5000 µg/mL (Bacillus cereus [24]): 12 mm; MIC (Staphylococcus aureus [31]): 16 µg/mL"
